The results in this text go back to patent US6410790B1, “3-amin3-arylpropan-1-ol compounds, their preparation and use” (priority 1999, dated 2002).

In test [1] the test system is phenylquinone-induced writhing reaction. Nature of the test: phenylquinone-induced writhing test in mice. The test is classed as in vivo. The conditions noted are these: male NMRI mice, phenylquinone i.p. 10 minutes later; for inhibition in vivo at 10 mg/kg: Mus musculus, iv, 10 min, 10 mg/kg intravenously. Here is the method:
Analgesic Effect in the Writhing Test in Mice
The analgesic effect was investigated in the phenylquinone-induced writhing test in mice (as modified by I. C. Hendershot and J. Forsaith (1959) J. Pharmacol. Exp. Ther. 125, 237-240). Male NMRI mice weighing 25 to 30 g were used for the test. Groups of 10 animals each received by intraperitoineal application, for each substance dose, 0.3 ml/mouse of a 0.02% aqueous solution of phenylquinone (phenylbenzoquinone, Sigma Company, Deisenhofen; solution prepared with addition of 5% of ethanol and kept in a water bath at 45° C.) 10 minutes after intravenous administration of the test substances. The animals were placed individually in observation cages. The number of pain-induced stretching movements (so-called writhing reactions=straightening of the body together with stretching of the rear extremities) was measured by means of a push-button counter 5 to 20 minutes after administration of the phenylquinone. Animals that had received only physiological saline solution served as controls. All substances were tested in the standard dose of 10 mg/kg. The percentage inhibition (% inhibition) of the writhing reaction produced by a substance was calculated according to the following formula: [formula]
A general note: Writhing tests count abdominal constrictions after an irritant is injected.

The target in a further test is T1, NA transporter (Rattus norvegicus, UniProt Q63380).
T1 construct: synaptosomes are isolated fresh from rat brains; from tissue; host or cells: rat hypothalamus synaptosomes (P2 fraction)
Nature of the test: synaptosomal noradrenaline uptake inhibition (NA uptake inhibition). The test is classed as biochemical. The following applies: for NA Uptake Inhibition at 1 μM: 1 μM in the assay, synaptosomes from rat hypothalamus; for inhibition at 1 µM: read-out: NA Uptake Inhibition at 1 μM, 1 μM in the assay, synaptosomes from rat hypothalamus. The procedure:
In order to carry out these in vitro studies, synaptosomes are isolated fresh from rat brains. In each case a so-called “P2” fraction is used, which is prepared according to the protocol of Gray and Whittaker (E. G. Gray and V. P. Whittaker (1962) J. Anat. 76, 79-88).
(in each case N=4, i.e. mean values±SEM from 4 independent series of experiments that were carried out in the form of triple parallel experiments).
(§1) For this purpose IC50 values are obtained, which can be converted to inhibitor constants (Ki) according to the “Cheng-Prusoff equation” (Y. C. Clieng and W. H. Prusoff (1973) Biochem. Pharmacol. 22, 3099-3108). The IC50 values were obtained by means of the computer program “Figure P” (version 6.0, Biosoft, Cambridge, England). Km values were calculated according to Lineweaver and Burk (H. Lineweaver and D. Burk (1934) J. Am. Chem. Soc. 56, 658-666). The “Ligand” computer program (version 4, Biosoft, England) was used to obtain Ken values.

In test [2] the test system is benzothiazepine binding site of the L-type calcium channel. Nature of the test: Diltiazem binding, L calcium channel. The following applies: for Diltiazem Binding at 10 μM: percentage inhibition, [3H]-cis-(+)-diltiazem 5 nM, rat cerebral cortex membranes. On the set-up: species or system rat. The procedure: Binding Investigations in the L Calcium Channel
Benzothiazepine Binding Site (Diltiazem Binding)
The biological membrane material was isolated from the rat cerebral cortex. [^3H]-cis-(+)-diltiazem (5 nM in the assay) was used as ligand. The material was incubated for 20 minutes at 25° C. The radioactivity that is measured in the presence of (±)-diltiazem (10^−6 M in the assay) is defined as non-specific binding. After completion of incubation the non-bound fraction of the radioactive ligand is separated by means of a filtration process using Whatman Glasfiber GF/B membranes. The membranes are washed and the radioactivity is then measured using a β-counter. The method is based on the details published by Schoemaker and Langer (H. Schoemaker and S. Z. Langer (1985) Eur. J. Pharmacol. 111, 273-277).
as §1

Test [3] has as its system binding site 2 of the sodium channel. In words: BTX binding, sodium channel. The following applies: rat cerebral cortex synaptosomes; for BTX Binding at 10 μM: percentage inhibition, [3H]-batrachotoxin A20 α-benzoate 10 nM. The procedure:
Binding Investigations in the Sodium Channel
Binding Site 2 (BTX Binding)
The binding site 2 of the sodium channel is the so-called batrachotoxin (BTX) binding site. [^3H]-batrachlotoxin A20 α-benzoate (10 nM in the assay) was used as ligand. These ion channel particles (synaptosomes) were concentrated from rat cerebral cortex according to the procedure of Gray and Whittaker (E. G. Gray and V. P. Whittaker (1962) J. Anat. 76, 79-88). The radioactivity that is measured in the presence of veratridine (0.3 mM in the assay) is defined as non-specific binding. The material was incubated at 37° C. for 120 minutes. The assay conditions are carried out according to the protocol published by Pauwels, Leysen and Laduron (P. J. Pauwels, J. E. Leysen and P. M. Laduron (1986) Eur. J. Pharmacol. 124, 291-298).
(N=3, i.e. mean values±SEM from 3 independent series of experiments that were carried out in the form of triple parallel experiments).
as §1

T1 sequence (Q63380 1-617): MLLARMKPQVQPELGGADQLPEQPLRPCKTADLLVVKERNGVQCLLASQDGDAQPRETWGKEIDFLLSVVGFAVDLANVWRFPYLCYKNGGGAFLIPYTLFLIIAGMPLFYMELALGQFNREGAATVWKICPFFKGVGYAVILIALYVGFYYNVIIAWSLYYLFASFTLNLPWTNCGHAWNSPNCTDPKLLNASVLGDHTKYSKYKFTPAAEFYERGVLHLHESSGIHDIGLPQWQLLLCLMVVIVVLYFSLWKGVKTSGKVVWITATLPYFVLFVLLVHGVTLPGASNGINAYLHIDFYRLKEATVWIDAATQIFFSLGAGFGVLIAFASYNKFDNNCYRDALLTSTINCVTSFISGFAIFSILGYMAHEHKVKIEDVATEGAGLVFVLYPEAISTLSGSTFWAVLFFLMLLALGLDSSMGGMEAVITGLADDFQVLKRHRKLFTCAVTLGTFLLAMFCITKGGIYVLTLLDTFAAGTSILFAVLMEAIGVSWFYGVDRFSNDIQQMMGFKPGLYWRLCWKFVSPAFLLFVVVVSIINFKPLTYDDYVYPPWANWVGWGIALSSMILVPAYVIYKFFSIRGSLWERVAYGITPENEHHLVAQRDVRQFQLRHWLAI

As to `COc1cccc(C(C2CCCCC2(O)c2cccc(Cl)c2)N(C)C)c1.Cl` (stereo not drawn) [Example 9], the “% Inhibition of the writhing reaction at 10 mg/kg intravenously” value in test [1] is on record as 73%. Moreover, the “NA Uptake Inhibition at 1 μM” value on NA transporter was 62%. In test [2], the “Diltiazem Binding at 10 μM” value was found to be 91%. Further, the “BTX Binding at 10 μM” value in test [3] stood at 89%.

Turning to `COc1cccc(CC2(O)CCCCC2C(c2ccccc2)N(C)C)c1.Cl` (stereo not drawn) [Example 13, 2-(dimethylaminophenylmethyl)-1-(3-methoxybenzyl)cyclohexanol, hydrochloride], in test [1], the inhibition in vivo (usually the drop in the measured response relative to a control, in per cent) at 10 mg/kg came out at 100%. Also, the inhibition (usually the drop in the measured response relative to a control, in per cent) at 1 µM on NA transporter stood at 95%. The “Diltiazem Binding at 10 μM” value in test [2] is recorded as 88%. Besides, in test [3], the “BTX Binding at 10 μM” value was determined as 94%.

In test [1], `CN(C)C(c1ccccc1)C1CCCCC1(O)c1ccc(O)cc1.Cl` (stereo not drawn) [Example 20, 4-[2-(dimethylaminophenylmethyl)-1-hydroxycyclohexyl]phenol, hydrochloride] came in with an inhibition in vivo at 10 mg/kg of 96%. Moreover, the inhibition at 1 µM at NA transporter stood at 68%. Also, the “Diltiazem Binding at 10 μM” value in test [2] is 69%. Further, in test [3], the “BTX Binding at 10 μM” value is 68%.

In test [1], `CN(C)C(c1ccccc1)C1CCCCC1(O)Cc1ccc(Cl)cc1.Cl` (stereo not drawn) [Example 23, 1-(4-chlorobenzyl)-2-(dimethylaminophenylmethyl)-1-cyclohexanol, hydrochloride] returned an inhibition in vivo at 10 mg/kg of 100%. For the same molecule, the inhibition at 1 µM at NA transporter was determined as 99%. The “Diltiazem Binding at 10 μM” value in test [2] stood at 100%. Also, the “BTX Binding at 10 μM” value in test [3] stood at 94%.

Regarding `CN(C)C(c1ccccc1)C1CCCCC1(O)Cc1ccccc1F.Cl` (stereo not drawn) [Example 24, 2-(dimethylaminophenylmethyl)-1-(2-fluorobenzyl)cyclohexanol, hydrochloride], the inhibition in vivo at 10 mg/kg in test [1] is 97%. Besides, the inhibition at 1 µM at NA transporter was determined as 98%. For the same molecule, the “Diltiazem Binding at 10 μM” value in test [2] is 93%. Also, the “BTX Binding at 10 μM” value in test [3] stood at 92%.

In test [1], `CN(C)C(c1ccccc1)C1CCCCC1(O)Cc1ccc(F)cc1.Cl` (stereo not drawn) [Example 25, 2-(dimethylaminophenylmethyl)-1-(4-fluorobenzyl)cyclohexanol, hydrochloride] yielded an inhibition in vivo at 10 mg/kg of 100%. Further, the inhibition at 1 µM at NA transporter was 98%. For the same molecule, in test [2], the “Diltiazem Binding at 10 μM” value is on record as 85%. In addition, the “BTX Binding at 10 μM” value in test [3] is given as 91%.

In test [1], `COc1ccc(OC)c(C2(O)CCCCC2C(c2ccccc2)N(C)C)c1.Cl` (stereo not drawn) [Example 26, 1-(2,5-dimethoxyphenyl)-2-(dimethylaminophenylmethyl)cyclohexanol, hydrochloride] displayed an inhibition in vivo at 10 mg/kg of 94%. Besides, on NA transporter, the inhibition at 1 µM came to 5%. The “Diltiazem Binding at 10 μM” value in test [2] is listed as 87%. The “BTX Binding at 10 μM” value in test [3] is given as 85%.

The molecule `CN(C)C(c1ccccc1)C1CCCCC1(O)Cc1ccc(F)cc1Cl.Cl` (stereo not drawn) [Example 27, 1-(2-chloro-4-fluorobenzyl)-2-(dimethylaminophenylmethyl)cyclohexanol, hydrochloride] showed an inhibition in vivo at 10 mg/kg in test [1] of 82%. Besides, the inhibition at 1 µM at NA transporter is 89%. Also, the “Diltiazem Binding at 10 μM” value in test [2] amounted to 96%. In test [3], the “BTX Binding at 10 μM” value was determined as 97%.

In the case of `CN(C)C(c1ccccc1)C1CCCCC1(O)Cc1ccccc1Cl.Cl` (stereo not drawn) [Example 30, 1-(2-chlorobenzyl)-2-(dimethylaminophenylmetlhyl)cyclohexanol, hydrochloride], the “% Inhibition of the writhing reaction at 10 mg/kg intravenously” value in test [1] worked out at 85%. The “NA Uptake Inhibition at 1 μM” value on NA transporter is on record as 98%. In addition, the “Diltiazem Binding at 10 μM” value in test [2] worked out at 98%. Moreover, in test [3], the “BTX Binding at 10 μM” value was found to be 96%.

With `COc1cccc(C(C2CCCCC2(O)c2ccc3c(c2)OCO3)N(C)C)c1.Cl` (stereo not drawn) [Example 31, 1-benzo[1,3]dioxol-5-yl-2-[dimethylamino-(3-methoxyphenyl)methyl]cyclohexanol, hydrochloride], the inhibition in vivo at 10 mg/kg in test [1] turned out to be 76%. The inhibition at 1 µM at NA transporter was found to be 43%. Besides, the “Diltiazem Binding at 10 μM” value in test [2] is given as 90%. Besides, the “BTX Binding at 10 μM” value in test [3] worked out at 85%.

As to `CN(C)C(c1ccccc1)C1CCCCC1(O)Cc1cccc(Cl)c1.Cl` (stereo not drawn) [Example 32, 1-(3-chlorobenzyl)-2-(dimethylaminophenylmethyl)cyclohexanol, hydrochloride], in test [1], the inhibition in vivo at 10 mg/kg worked out at 100%. The inhibition at 1 µM at NA transporter is 100%. Moreover, the “Diltiazem Binding at 10 μM” value in test [2] was determined as 98%. The “BTX Binding at 10 μM” value in test [3] stood at 94%.

`CN(C)C(c1ccccc1)C1CCCCC1(O)Cc1ccc(Cl)cc1Cl.Cl` (stereo not drawn) [Example 33, 1-(2,4-dichlorobenzyl)-2-(dimethylaminophenylmethyl)cyclohexanol, hydrochloride] returned an inhibition in vivo at 10 mg/kg in test [1] of 84%. In addition, the inhibition at 1 µM on NA transporter turned out to be 83%. Moreover, the “Diltiazem Binding at 10 μM” value in test [2] was determined as 86%. Also, the “BTX Binding at 10 μM” value in test [3] is 98%.

In test [1], `CN(C)C(c1ccccc1)(c1cccc(Oc2ccccc2)c1)C1CCCCC1(O)Cc1ccccc1.Cl` (stereo not drawn) [Example 34, 1-benzyl-2-[dimethylaminophenyl-(3-phenoxyphenyl)methyl]cyclohexanol, hydrochloride] gave an inhibition in vivo at 10 mg/kg of 99%. Moreover, on NA transporter, the inhibition at 1 µM came to 96%. In test [2], the “Diltiazem Binding at 10 μM” value was determined as 100%. Besides, in test [3], the “BTX Binding at 10 μM” value worked out at 100%.

In test [1], `COc1cccc(C(c2ccccc2)(C2CCCCC2(O)Cc2ccccc2)N(C)C)c1.Cl` (stereo not drawn) [Example 35, 1-benzyl-2-[dimethylaminophenyl-(3-methoxyphenyl)methyl]cyclohexanol, hydrochloride] displayed an inhibition in vivo at 10 mg/kg of 81%. On NA transporter, the inhibition at 1 µM turned out to be 100%. For the same molecule, in test [2], the “Diltiazem Binding at 10 μM” value turned out to be 87%. Further, in test [3], the “BTX Binding at 10 μM” value was 92%.

`CN(C)C(c1ccccc1)C1CCCCC1(O)Cc1cccc(C(F)(F)F)c1.Cl` (stereo not drawn) [Example 36, 2-(dimethylaminophenylmethyl)-1-(3-trifluoromethylbenzyl)cyclohexanol, hydrochloride]: in test [1], the inhibition in vivo at 10 mg/kg worked out at 100%. The inhibition at 1 µM on NA transporter turned out to be 91%. Also, in test [3], the “BTX Binding at 10 μM” value is recorded as 98%.

Regarding `COc1cccc(CC2(O)CCCCC2C(c2cccc(OC)c2)N(C)C)c1.Cl` (stereo not drawn) [Example 37, 2-(dimethylamino-(3-methoxyphenyl)methyl]-1-(3-methoxybenzyl)cyclohexanol, hydrochloride], the inhibition in vivo at 10 mg/kg in test [1] is 93%. The inhibition at 1 µM on NA transporter was determined as 100%. For the same molecule, the “Diltiazem Binding at 10 μM” value in test [2] is reported as 94%. Moreover, the “BTX Binding at 10 μM” value in test [3] worked out at 90%.

`CN(C)C(c1ccccc1Cl)C1CCCCC1(O)c1ccc2ccccc2c1.Cl` (stereo not drawn) [Example 38, 2-[(2-chlorophenyl)dimethylaminomethyl]-1-naphthalene-2-ylcyclohexanol, hydrochloride] had an inhibition in vivo at 10 mg/kg in test [1] of 85%. Besides, the inhibition at 1 µM on NA transporter turned out to be 17%. In test [2], the “Diltiazem Binding at 10 μM” value was 67%. Besides, in test [3], the “BTX Binding at 10 μM” value stood at 97%.

Consider “[^3H]-batrachlotoxin A20 α-benzoate [reference compound]”, for which, in test [3] (radioligand, N=3, mean±SEM, read-out: KD value for this binding site), the dissociation constant Kd (usually the free concentration of one partner at which half of the binding sites on the other are occupied at equilibrium, for simple one-to-one binding) came to 24.6 ± 1.56 nM.

Regarding “[^3H]-cis-(+)-diltiazem [reference compound]”, the Kd in test [2] (radioligand, rat cerebral cortex, N=3, mean±SEM, read-out: KD value for this high-affinity binding site) is 4.1 ± 0.75 nM.
